Assays:
TRPV4 ion channel = molecular target: T1, TRPV4 ion channel (Homo sapiens, UniProt Q9HBA0); experiment: Calcium mobilization assay in HEK293/TRPV4 cells (GSK1016790A-stimulated); assay type: cell-based
T1 construct: host or cells: HEK293
Method: TRPV4 is another critical TRP ion channel that plays a role in thermal and mechanical hyperalgesia. TRPV4 shares similarity with TRPA1 [24, 25]. […] Firstly, the activating effect of the TRPV4 agonist GSK1016790A was tested. […] Thereafter, cardamonin was incubated with HEK293/TRPV4 cells at 90 μM, 30 μM, and 10 μM prior to 83 nM GSK1016790A stimulation. HEK293/TRPV4 cells treated in the absence of the test compound was the negative control and 330 μM ruthenium red was performed as the positive control.
(§1) Recombinant HEK293/TRPA1, HEK293/TRPV1, and HEK293/TRPV4 cell lines were generated by HD Bioscience Co. Ltd (Shanghai, China) following standard procedures as reported previously. HEK293/TRPA1 and HEK293/TRPV4 cells were cultured in complete DMEM medium with 100 μg/mL hygromycin B, 50 U/mL penicillin, and 100 μg/mL streptomycin. HEK293/TRPV1 cells were cultured with 350 μg/mL zeocin and 5 μg/mL blasticidin in complete DMEM culture medium.
(§2) Calcium influx upon TRPA1 activation by agonist stimulation was measured using calcium mobilization assay as reported previously. Briefly, cells were plated into 96-well microplates (matrigel coated) at a density of 3.5 × 10^4 cells per well. The plates were incubated at 37 °C with 5% CO2 overnight to allow the cells to recover. On the following day, replace cell culture medium with loading buffer containing Fluo-4 AM (MD, CA, USA), kept the plate at 37 °C for 30 min. Test compound was added to cells 10 min prior to the onset of TRAP1 agonist cinnamaldehyde, TRPV1 agonist 2APB, or TRPV4 agonist GSK1016790A. The calcium signal was captured with Flexstation II reader (MD, CA, USA) at 37 °C for TRPA1 and TRPV1 activation. The reader chamber was set at 24 °C for TRPV4 activation.

[1] = test system: neonatal rat cardiomyocytes (CMs); experiment: Cardiotoxicity evaluation, xCELLigence RTCA cardio impedance; assay type: cell-based; conditions: 10 μM
Method: To assess the potential adverse risk in cardiomyocytes, we administrated neonatal rat cardiomyocytes (CMs) with cardamonin, tested at 10 μM (22-fold of the IC50 value). Amiodarone (10 μM), an antiarrhythmic drug that delays cardiac repolarization through inhibiting hERG potassium channels [31], was performed as a positive cardio toxic control [32]. […] Amplitude represented the height of the print. […] Cell index represented cell number and viability. […] Cardiotoxicity test of cardamonin was performed with neonatal rat cardiomyocytes that obtained from 24 h Sprague-Dawley rats [47]. Compound treatment and cardiomyocytes impedance profiles were monitored as previously reported by Yu et al. [48]. Briefly, CMs cells were seeded into cardio E-Plate 96 that pre-coated with matrigel. Thereafter, cell culture medium was refreshed every day until CMs presented stable beating patterns. For compound treatment, 10× chemical dose solutions were prepared and added to the cells. The cell impedance was captured using xCELLigence RTCA cardio instrument.

TRPV1 channel = molecular target: T2, TRPV1 channel (Homo sapiens, UniProt Q8NER1); experiment: Calcium mobilization assay in HEK293/TRPV1 cells (2APB-stimulated); assay type: cell-based
T2 construct: host or cells: HEK293
T2 sequence (Q8NER1 whole entry): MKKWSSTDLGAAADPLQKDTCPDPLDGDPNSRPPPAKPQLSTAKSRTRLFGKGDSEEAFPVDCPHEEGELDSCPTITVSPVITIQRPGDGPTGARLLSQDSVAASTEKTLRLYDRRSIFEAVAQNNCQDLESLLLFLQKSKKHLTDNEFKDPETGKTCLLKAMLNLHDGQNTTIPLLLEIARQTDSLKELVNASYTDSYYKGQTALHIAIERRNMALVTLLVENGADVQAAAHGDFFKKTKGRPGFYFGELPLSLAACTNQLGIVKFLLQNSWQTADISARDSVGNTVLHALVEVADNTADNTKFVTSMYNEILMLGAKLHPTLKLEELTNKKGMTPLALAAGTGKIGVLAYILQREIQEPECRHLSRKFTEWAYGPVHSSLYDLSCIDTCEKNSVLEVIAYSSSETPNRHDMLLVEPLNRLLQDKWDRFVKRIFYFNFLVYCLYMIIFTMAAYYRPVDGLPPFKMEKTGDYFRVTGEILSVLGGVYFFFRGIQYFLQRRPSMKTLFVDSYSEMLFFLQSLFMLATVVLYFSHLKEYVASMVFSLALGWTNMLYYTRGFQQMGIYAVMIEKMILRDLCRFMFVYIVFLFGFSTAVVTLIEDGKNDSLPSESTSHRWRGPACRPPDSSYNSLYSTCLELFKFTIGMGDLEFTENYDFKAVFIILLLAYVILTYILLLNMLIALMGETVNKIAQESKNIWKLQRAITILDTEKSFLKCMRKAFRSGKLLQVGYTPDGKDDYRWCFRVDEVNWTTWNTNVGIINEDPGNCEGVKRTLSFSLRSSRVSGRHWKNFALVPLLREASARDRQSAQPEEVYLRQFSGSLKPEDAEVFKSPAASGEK
Method: as §1, §2

hTRPA1 cation channel [2] = molecular target: T3, hTRPA1 cation channel (Homo sapiens, UniProt O75762); experiment: Calcium mobilization assay in HEK293/TRPA1 cells (cinnamaldehyde-stimulated); assay type: cell-based
T3 construct: host or cells: HEK293
T3 sequence (O75762 whole entry): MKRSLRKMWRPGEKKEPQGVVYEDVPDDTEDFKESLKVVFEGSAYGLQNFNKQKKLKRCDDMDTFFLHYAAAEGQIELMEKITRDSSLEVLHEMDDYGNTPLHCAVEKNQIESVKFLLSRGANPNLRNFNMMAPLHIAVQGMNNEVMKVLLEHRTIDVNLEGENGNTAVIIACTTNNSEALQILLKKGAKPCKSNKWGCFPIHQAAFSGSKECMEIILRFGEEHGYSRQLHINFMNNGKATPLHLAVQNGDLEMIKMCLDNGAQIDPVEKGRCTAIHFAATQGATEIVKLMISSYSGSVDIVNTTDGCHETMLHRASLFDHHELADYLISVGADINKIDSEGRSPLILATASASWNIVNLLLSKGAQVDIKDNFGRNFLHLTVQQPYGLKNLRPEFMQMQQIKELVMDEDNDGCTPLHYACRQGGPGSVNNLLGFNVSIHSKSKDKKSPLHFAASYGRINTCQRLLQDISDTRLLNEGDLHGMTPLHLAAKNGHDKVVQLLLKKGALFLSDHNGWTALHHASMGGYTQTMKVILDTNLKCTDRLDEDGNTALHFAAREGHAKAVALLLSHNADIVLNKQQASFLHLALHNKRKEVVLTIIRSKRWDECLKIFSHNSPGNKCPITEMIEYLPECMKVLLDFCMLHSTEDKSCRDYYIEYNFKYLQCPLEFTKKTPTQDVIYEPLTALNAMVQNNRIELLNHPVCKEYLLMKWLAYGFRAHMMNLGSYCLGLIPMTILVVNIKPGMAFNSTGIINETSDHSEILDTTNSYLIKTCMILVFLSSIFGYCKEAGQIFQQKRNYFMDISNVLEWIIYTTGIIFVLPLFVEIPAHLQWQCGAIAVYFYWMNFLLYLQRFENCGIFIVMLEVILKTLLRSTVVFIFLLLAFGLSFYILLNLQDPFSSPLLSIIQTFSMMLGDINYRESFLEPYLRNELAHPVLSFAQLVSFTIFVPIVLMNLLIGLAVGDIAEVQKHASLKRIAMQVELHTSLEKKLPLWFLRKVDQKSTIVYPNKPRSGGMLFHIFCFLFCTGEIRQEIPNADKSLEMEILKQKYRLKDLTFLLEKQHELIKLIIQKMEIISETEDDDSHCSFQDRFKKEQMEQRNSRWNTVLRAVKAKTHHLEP
Method: To discover a novel TRPA1 antagonist, a small library containing 156 natural chemicals were evaluated for their inhibitory effects on the TRPA1 ion channel at 10 μM (Figure 1A). The compound list was released previously. The cells were pre-incubated with cinnamaldehyde (CA) by its EC80 (90 μΜ) for 10 min and then treated with tested compounds. […] The time-course profile of the calcium signal was recorded (Figure 1B) and the peak value was used for determination of the maximum calcium mobilization.
as §1, §2

HEK293 cells = experiment: HEK293 cell viability, Cell Titer-Glo assay; assay type: cell-based; conditions: 24 h
Method: In order to rule out the possibilities of false positives, we tested whether cardamonin induced cytotoxicity in HEK293 cells. The cells were seeded into 96-well plate and incubated in the presence or absence of cardamonin. HEK293 cells were incubated with cardamonin for 24 h. […] HEK293 cell viability was determined based on quantification of ATP using Cell Titer-Glo® luminescent Assay kit (Promega, Madison, WI, USA), which signals the presence of metabolically-active cells. Briefly, HEK293 cells were seeded into 96-well plates at a cell density of 3.5 × 10^4 cells per well, the plates were kept at 37 °C with 5% CO2 overnight. On the following day, cardamonin was added to the cells from a top concentration of 90 μΜ. The cells treated in the absence of the test compound were the negative control. After incubated for 24 h, Cell Titer-Glo reagent was added to the cells and Luminescence was acquired on EnVision™ 2100 Multilabel Reader (PerkinElmer, Santa Clara, CA, USA).

hTRPA1 cation channel [3] = molecular target: T3, hTRPA1 cation channel; conditions: HEK293/TRPA1 activation; cited from earlier work

T1 sequence (Q9HBA0 whole entry): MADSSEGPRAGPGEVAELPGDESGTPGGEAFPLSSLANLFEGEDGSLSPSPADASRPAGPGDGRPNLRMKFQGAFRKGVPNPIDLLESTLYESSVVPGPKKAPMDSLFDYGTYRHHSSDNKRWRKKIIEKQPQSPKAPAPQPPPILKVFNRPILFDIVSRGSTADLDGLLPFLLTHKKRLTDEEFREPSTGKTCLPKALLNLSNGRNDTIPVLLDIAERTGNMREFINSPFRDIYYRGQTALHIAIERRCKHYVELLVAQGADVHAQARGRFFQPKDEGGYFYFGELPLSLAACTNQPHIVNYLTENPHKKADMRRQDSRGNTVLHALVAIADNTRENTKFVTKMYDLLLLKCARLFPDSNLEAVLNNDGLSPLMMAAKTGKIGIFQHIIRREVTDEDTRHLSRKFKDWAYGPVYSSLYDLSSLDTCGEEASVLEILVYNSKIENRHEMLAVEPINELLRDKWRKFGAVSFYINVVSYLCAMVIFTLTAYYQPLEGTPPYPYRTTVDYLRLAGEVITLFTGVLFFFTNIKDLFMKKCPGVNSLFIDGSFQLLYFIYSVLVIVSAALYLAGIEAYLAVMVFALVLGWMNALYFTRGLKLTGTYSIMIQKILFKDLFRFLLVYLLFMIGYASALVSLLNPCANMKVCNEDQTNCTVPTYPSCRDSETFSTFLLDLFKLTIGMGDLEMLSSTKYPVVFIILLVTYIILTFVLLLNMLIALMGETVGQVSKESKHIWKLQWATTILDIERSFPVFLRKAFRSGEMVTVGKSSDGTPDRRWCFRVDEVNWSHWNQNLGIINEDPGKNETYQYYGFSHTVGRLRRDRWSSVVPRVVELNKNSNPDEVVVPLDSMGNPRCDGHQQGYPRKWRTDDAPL

`CC(C)C[C@H](NC(=O)c1cc2ccccc2s1)C(=O)N1CCN(C(=O)[C@H](CO)NS(=O)(=O)c2ccc(Cl)cc2Cl)CC1` [GSK1016790A] gave an EC50 (TRPV4 ion channel) of 0.0092 µM.
In the case of `CCCCc1oc2ccccc2c1C(=O)c1cc(I)c(OCCN(CC)CC)c(I)c1` [amiodarone, reference compound], the “CMs' beating rate” value [1] is reported as “significantly decreased”.
For `COc1cc(O)cc(O)c1C(=O)/C=C/c1ccccc1` [cardamonin], the “Inhibition of calcium influx in HEK293/TRPV1 cells” value (TRPV1 channel; 90 μΜ, 30 μΜ and 10 μΜ, pre-treated 10 min, 1 mM 2APB, 37 °C) was “failed to inhibit calcium influx”, the IC50 (hTRPA1 cation channel [2]) was 0.454 µM and the “Inhibition of CA induced HEK293/TRPA1 activation (screen)” value (hTRPA1 cation channel [2]; 10 μM compound, 90 μM cinnamaldehyde) was “significantly inhibited”. For the same compound, the “Blockage of TRPA1 activity” value (hTRPA1 cation channel [2]; at 90 μM compound) was “Full blockage”, the “Activation of TRPA1 by compound alone” value (hTRPA1 cation channel [2]; without agonist) was “could not activate TRPA1 alone” and the “Cytotoxicity in HEK293 cells” value (HEK293 cells; 90 μΜ (top concentration)) was “slight cell injury”. The “Cytotoxicity in HEK293 cells” value (HEK293 cells; within 30 μΜ, p > 0.05) was “no detectable cytotoxicity”, the “Amplitude profile of CMs” value [1] was “in accordance with vehicle control” and the “CMs' beating pattern (real-time beating impedance)” value [1] was “did not induce dramatic alteration”. For the same compound, the “CMs' beating rate” value [1] was “not”, the “Cell index (CMs cell number and cell viability)” value [1] was “did not significantly decrease” and the “Inhibition of TRPV4 calcium signal” value (TRPV4 ion channel; 90 μM, 30 μM and 10 μM prior to 83 nM GSK1016790A) was “No detectable inhibiting effect”.
In the case of `O=C/C=C/c1ccccc1` [cinnamaldehyde], the “EC80 of TRPA1 agonist” value (hTRPA1 cation channel [3]) is given as 90 μΜ.
`Cl.Cl.Cl.Cl.Cl.Cl.N.N.N.N.N.N.N.N.N.N.N.N.N.N.[O-2].[O-2].[Ru+3].[Ru+3].[Ru+4]` [ruthenium red, reference compound] showed an IC50 (TRPV1 channel; HEK293/TRPV1, 1 mM 2APB stimulation, read-out: IC50, inhibition of TRPV1 activation) of 207 µM and an IC50 (TRPV4 ion channel; HEK293/TRPV4, added 10 min prior to 83 nM GSK1016790A, 24 °C, read-out: IC50, blocking TRPV4 activation) of 29.8 µM.

— paper PMC6274095 (Molecules, 2016)
